{
  "source": "ChEMBL document CHEMBL5465560",
  "about": "“Selectivity Literature for EUbOPEN Chemogenomic Library” (2024)",
  "key": {"[1]": {"target": "Calcium/calmodulin-dependent protein kinase type 1D (Homo sapiens) (UniProt Q8IU85)", "sequence (Q8IU85 whole entry, looked up)": "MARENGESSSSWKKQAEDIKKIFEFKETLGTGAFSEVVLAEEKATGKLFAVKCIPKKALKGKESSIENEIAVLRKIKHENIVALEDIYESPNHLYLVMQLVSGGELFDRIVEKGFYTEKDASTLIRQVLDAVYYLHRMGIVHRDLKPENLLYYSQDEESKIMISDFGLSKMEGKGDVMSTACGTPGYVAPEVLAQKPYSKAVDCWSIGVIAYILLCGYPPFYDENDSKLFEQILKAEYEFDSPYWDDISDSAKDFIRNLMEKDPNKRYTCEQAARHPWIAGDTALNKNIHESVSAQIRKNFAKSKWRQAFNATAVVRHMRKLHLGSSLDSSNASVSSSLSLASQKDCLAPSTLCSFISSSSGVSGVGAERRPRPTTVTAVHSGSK", "test": "Selectivity interaction (KinomeScan (DiscoverX)) EUB0000229b CAMK1D", "settings": "at 10 µM"}, "[2]": {"target": "Cyclin-dependent kinase 4 (Homo sapiens, UniProt P11802)", "sequence (P11802 whole entry)": "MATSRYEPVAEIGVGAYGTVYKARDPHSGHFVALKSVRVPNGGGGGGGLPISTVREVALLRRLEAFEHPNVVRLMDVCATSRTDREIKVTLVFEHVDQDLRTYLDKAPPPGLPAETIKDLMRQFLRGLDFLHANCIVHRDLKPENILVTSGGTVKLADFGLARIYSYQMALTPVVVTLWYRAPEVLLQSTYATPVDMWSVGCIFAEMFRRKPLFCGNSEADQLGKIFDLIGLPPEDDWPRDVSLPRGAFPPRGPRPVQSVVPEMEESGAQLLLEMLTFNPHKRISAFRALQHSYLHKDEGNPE", "test": "Selectivity interaction (KinomeScan (DiscoverX)) EUB0000229b CDK4", "settings": "at 10 µM"}, "[3]": {"target": "T1, Dual specificity tyrosine-phosphorylation-regulated kinase 2 (Homo sapiens) (UniProt Q92630)", "T1 sequence (whole entry)": "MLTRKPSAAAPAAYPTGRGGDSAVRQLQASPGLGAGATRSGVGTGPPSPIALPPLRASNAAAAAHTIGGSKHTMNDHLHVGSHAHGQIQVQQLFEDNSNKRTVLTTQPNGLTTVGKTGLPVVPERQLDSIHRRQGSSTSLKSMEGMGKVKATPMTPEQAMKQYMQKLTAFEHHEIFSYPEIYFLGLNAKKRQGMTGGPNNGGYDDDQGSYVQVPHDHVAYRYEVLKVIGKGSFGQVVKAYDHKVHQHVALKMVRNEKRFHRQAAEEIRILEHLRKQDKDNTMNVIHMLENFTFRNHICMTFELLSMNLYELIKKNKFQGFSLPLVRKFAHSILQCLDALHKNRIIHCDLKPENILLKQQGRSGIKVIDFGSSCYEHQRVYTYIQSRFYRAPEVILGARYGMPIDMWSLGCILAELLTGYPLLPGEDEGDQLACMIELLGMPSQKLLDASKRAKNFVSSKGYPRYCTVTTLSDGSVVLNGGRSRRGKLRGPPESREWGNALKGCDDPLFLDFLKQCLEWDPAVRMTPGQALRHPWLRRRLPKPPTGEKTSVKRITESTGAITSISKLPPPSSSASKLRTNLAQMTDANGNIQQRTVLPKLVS", "test": "Selectivity interaction (KinomeScan (DiscoverX)) EUB0000655a DYRK2", "settings": "at 10 µM"}, "[4]": {"target": "Ephrin type-A receptor 2 (Homo sapiens) (UniProt P29317)", "sequence (P29317 whole entry)": "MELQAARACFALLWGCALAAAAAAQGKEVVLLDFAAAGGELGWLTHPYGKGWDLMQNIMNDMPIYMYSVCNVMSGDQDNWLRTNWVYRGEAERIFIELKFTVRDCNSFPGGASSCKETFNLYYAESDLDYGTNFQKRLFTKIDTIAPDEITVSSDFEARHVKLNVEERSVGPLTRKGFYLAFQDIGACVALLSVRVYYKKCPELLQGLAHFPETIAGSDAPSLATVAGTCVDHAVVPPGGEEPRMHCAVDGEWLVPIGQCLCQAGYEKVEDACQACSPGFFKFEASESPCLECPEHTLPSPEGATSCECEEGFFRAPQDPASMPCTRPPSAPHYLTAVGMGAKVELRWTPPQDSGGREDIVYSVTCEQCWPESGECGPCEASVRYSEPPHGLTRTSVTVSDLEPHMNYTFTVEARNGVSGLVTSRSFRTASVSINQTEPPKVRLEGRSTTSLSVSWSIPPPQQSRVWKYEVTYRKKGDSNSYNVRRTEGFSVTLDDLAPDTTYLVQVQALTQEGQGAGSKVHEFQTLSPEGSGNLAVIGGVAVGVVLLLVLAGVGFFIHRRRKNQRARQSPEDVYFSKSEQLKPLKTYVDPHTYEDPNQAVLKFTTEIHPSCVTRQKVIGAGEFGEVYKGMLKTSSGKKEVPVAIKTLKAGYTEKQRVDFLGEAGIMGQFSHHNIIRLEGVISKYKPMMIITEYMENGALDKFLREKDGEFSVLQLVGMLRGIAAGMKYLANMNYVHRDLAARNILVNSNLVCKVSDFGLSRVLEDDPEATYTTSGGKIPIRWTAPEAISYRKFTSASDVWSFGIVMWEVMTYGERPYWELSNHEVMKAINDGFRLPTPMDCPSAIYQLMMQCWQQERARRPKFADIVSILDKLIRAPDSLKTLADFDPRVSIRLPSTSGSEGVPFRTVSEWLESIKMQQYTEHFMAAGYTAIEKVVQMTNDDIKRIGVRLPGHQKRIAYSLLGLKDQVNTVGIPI", "test": "Selectivity interaction (KinomeScan (DiscoverX)) EUB0000655a EPHA2", "settings": "at 10 µM"}, "[5]": {"target": "Angiopoietin-1 receptor (Homo sapiens) (UniProt Q02763)", "test": "Selectivity interaction (ProQinase) EUB0000171b TEK", "settings": "at 1 µM"}, "[6]": {"target": "Macrophage-stimulating protein receptor (Homo sapiens, UniProt Q04912)", "test": "Selectivity interaction (KinomeScan (DiscoverX)) EUB0000666a MST1R", "settings": "at 10 µM"}, "[7]": {"test": "Selectivity interaction (Rat whole blood B cell activation assay) EUB0000877a PIK3CD", "format": "tissue-based"}, "[8]": {"target": "Calcium/calmodulin-dependent protein kinase type 1 (Homo sapiens) (UniProt Q14012)", "sequence (Q14012 whole entry, looked up)": "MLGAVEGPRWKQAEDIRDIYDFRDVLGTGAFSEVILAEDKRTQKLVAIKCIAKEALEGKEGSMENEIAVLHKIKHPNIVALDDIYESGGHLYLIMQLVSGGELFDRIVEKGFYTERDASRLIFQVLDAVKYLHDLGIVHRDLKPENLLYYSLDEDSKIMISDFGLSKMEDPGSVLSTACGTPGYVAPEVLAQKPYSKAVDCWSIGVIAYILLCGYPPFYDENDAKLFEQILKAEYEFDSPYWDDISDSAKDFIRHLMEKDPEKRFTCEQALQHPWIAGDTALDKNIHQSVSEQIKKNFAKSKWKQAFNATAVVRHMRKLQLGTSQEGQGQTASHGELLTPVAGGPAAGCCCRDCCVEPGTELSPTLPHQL", "test": "Selectivity interaction (Adapta Assay) EUB0001632a CAMK1", "settings": "at 10 µM"}, "[9]": {"target": "High affinity nerve growth factor receptor (Homo sapiens, UniProt P04629)", "sequence (P04629 33-796 limits assumed)": "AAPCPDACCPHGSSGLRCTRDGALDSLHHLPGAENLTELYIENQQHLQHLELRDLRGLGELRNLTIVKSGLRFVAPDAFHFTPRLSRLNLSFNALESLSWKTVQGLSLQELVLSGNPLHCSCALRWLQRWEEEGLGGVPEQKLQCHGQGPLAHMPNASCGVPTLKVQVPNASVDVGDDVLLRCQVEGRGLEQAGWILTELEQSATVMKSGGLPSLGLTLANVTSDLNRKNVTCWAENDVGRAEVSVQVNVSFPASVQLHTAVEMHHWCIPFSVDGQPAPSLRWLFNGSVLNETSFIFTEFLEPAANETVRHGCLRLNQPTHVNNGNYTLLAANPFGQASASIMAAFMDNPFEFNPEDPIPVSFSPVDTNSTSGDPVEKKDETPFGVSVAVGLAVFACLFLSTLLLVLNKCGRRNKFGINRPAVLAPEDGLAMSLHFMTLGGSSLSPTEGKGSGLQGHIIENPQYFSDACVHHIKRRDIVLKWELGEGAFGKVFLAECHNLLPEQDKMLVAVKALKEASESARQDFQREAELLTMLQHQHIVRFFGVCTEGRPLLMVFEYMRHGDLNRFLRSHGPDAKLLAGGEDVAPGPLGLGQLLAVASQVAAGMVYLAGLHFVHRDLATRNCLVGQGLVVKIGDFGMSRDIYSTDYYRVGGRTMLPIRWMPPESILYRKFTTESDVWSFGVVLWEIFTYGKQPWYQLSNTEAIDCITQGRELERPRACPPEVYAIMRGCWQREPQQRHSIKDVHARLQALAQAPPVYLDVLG", "test": "Selectivity interaction (Kinase panel (Z-LYTE Assay)) EUB0001632a NTRK1", "settings": "at 10 µM"}, "Peregrin (Homo sapiens)": {"target": "T2, Peregrin (Homo sapiens) (UniProt P55201)", "T2 sequence (whole entry)": "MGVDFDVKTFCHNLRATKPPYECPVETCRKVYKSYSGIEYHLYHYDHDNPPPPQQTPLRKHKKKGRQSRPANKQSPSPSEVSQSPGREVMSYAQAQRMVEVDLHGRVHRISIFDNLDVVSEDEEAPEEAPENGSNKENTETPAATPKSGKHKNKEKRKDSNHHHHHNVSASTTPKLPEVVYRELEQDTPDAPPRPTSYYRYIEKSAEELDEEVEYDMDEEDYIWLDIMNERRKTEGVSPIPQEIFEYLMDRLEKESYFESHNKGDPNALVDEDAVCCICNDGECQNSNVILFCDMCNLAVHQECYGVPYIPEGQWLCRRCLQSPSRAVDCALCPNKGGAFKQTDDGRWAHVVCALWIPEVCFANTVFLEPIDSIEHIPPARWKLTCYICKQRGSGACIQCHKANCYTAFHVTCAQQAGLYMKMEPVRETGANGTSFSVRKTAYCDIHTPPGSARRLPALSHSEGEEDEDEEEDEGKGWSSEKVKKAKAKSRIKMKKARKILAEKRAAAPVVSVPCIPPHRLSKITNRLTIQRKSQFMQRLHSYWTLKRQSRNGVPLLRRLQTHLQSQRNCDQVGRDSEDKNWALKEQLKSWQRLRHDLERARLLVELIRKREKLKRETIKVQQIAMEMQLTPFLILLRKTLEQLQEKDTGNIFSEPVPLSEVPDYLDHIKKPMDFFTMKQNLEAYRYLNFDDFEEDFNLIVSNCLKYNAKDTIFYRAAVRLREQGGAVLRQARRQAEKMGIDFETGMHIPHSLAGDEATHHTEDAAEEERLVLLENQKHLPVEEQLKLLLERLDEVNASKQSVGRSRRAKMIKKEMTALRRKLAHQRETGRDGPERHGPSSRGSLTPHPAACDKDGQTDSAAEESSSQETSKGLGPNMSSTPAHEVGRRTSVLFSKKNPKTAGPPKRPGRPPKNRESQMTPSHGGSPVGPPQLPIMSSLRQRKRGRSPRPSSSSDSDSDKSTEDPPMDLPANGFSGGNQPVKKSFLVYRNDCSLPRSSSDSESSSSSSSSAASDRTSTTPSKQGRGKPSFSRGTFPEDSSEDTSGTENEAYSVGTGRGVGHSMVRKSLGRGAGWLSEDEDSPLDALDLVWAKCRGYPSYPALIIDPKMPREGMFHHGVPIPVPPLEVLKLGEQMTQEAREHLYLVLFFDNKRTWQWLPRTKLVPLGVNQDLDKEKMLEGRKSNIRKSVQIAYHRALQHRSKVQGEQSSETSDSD", "test": "Selectivity interaction (Bromodomain panel (DSF asssay)) EUB0000270b BRPF1"}, "[10]": {"target": "Tyrosine-protein kinase JAK2 (Homo sapiens, UniProt O60674)", "sequence (O60674 whole entry)": "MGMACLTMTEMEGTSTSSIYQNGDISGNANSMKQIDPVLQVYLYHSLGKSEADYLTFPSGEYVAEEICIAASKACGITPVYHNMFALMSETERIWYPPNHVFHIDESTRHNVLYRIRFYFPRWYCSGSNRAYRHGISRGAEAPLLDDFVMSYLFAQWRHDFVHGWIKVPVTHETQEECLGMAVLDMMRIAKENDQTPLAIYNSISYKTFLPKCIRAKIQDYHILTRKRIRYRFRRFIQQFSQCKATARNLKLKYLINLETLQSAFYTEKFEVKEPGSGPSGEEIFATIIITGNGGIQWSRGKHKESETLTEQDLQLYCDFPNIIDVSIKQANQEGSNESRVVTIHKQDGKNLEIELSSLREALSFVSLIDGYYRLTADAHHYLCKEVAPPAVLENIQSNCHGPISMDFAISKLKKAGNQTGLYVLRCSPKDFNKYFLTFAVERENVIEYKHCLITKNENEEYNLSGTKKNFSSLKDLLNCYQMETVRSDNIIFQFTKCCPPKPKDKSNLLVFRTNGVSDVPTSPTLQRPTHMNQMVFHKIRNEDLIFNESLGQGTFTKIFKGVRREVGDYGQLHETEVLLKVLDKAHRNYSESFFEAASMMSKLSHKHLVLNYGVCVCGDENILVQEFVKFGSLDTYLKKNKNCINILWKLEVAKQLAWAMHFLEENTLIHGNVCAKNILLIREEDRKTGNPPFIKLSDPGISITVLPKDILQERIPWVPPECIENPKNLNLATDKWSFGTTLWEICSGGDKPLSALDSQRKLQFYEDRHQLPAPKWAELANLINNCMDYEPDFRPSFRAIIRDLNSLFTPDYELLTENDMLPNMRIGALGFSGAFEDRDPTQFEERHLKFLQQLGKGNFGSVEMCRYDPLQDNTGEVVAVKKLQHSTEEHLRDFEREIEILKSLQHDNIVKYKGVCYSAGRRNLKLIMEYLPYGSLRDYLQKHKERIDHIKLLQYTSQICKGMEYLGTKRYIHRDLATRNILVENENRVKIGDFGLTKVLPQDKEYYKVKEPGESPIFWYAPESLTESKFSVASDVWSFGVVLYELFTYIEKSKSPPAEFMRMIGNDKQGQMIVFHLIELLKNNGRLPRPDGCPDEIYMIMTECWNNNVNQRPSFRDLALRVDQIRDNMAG", "test": "Selectivity interaction (Kinase panel (Invitrogen)) EUB0000639a JAK2", "settings": "at 200 nM"}, "[11]": {"target": "Dual specificity protein kinase CLK3 (Homo sapiens, UniProt P49761)", "sequence (P49761 whole entry, looked up)": "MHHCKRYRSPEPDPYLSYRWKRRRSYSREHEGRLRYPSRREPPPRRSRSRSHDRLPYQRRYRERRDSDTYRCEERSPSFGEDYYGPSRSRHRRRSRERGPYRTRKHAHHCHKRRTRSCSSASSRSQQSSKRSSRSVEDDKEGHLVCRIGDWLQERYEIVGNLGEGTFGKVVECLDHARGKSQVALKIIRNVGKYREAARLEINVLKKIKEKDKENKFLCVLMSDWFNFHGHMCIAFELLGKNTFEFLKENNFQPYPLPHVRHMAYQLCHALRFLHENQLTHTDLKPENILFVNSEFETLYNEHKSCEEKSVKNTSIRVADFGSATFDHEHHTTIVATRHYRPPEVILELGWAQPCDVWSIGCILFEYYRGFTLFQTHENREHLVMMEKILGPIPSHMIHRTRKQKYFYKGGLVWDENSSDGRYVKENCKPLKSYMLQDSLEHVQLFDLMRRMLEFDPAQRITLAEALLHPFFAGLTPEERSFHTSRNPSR", "test": "Selectivity interaction (SelectScreen profiling (Invitrogen)) EUB0000607a CLK3", "settings": "at 2 µM"}, "[12]": {"target": "Tyrosine-protein kinase Lyn (Homo sapiens, UniProt P07948)", "sequence (P07948 2-512 limits assumed)": "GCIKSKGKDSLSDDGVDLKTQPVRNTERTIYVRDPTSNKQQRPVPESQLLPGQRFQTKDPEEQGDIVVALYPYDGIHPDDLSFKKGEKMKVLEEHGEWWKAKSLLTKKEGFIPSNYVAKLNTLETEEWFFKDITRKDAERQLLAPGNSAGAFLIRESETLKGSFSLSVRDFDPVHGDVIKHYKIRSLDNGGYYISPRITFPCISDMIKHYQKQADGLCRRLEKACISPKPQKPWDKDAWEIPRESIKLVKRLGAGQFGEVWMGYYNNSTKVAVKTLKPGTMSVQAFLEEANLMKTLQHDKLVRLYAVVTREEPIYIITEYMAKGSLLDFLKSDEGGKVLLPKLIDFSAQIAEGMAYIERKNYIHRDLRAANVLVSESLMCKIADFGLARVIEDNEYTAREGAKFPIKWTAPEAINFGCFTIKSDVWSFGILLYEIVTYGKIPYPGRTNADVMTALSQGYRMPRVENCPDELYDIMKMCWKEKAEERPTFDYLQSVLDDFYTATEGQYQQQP", "test": "Selectivity interaction (KinomeScan (DiscoverX)) EUB0000607a LYN", "settings": "at 10 µM"}, "[13]": {"target": "Serine/threonine-protein kinase 24 (Homo sapiens) (UniProt Q9Y6E0)", "test": "Selectivity interaction (SelectScreen profiling (Invitrogen)) EUB0000607a STK24", "settings": "at 2 µM"}, "[14]": {"target": "Ribosomal protein S6 kinase alpha-6 (Homo sapiens, UniProt Q9UK32)", "test": "Selectivity interaction (KinomeScan (DiscoverX)) EUB0000618a RPS6KA6", "settings": "at 10 µM"}},
  "data": [
    {"smiles": "COc1cc(N(C)c2ccnc3ccc(C(F)(F)F)cc23)cc(OC)c1OC", "values": [
      {"measurement": "% binding", "setting": "[1]", "result": 59, "unit": "%"},
      {"measurement": "% binding", "setting": "[2]", "result": 100, "unit": "%"}
    ]},
    {"smiles": "CN(C)CCOc1ccc(-c2nc(-c3ccncc3)c(-c3ccc4c(c3)CC/C4=N\\O)[nH]2)cc1", "values": [
      {"measurement": "% of control", "setting": "[3]", "result": 98, "unit": "%"},
      {"measurement": "% of control", "setting": "[4]", "result": 83, "unit": "%"}
    ]},
    {"smiles": "C=CC(=O)Nc1cccc(C(=O)Nc2ccc(Nc3cc(-c4[nH]c(SC)nc4C)ccn3)cc2)c1", "values": [
      {"measurement": "% of control", "setting": "[5]", "result": 95, "unit": "%"}
    ]},
    {"smiles": "O=C(NOC[C@H](O)CO)c1ccc(F)c(F)c1Nc1ccc(I)cc1F", "values": [
      {"measurement": "% of control", "setting": "[6]", "result": 78, "unit": "%"}
    ]},
    {"smiles": "CCC(=O)N1CC[C@H](Nc2ncnc3c2CN(c2cnc(OC)c(C(F)(F)F)c2)CC3)C1", "note": "[LENIOLISIB]", "values": [
      {"measurement": "IC50", "setting": "[7]", "result": 0.099, "unit": "µM"}
    ]},
    {"smiles": "Cn1cc(-n2cnc3c(NCc4nc5cc(Cl)c(Cl)cc5[nH]4)nc(N4CCOCC4)nc32)cn1", "values": [
      {"measurement": "% of inhibition", "setting": "[8]", "result": 18.6, "unit": "%"},
      {"measurement": "% of control", "setting": "[9]", "result": -5.4, "unit": "%"}
    ]},
    {"smiles": "Cc1cc(CN)cc(C)c1-c1ncn(C)c1-c1cncn1C", "values": [
      {"measurement": "dTM", "setting": "Peregrin (Homo sapiens)", "result": -1.75, "unit": "K"}
    ]},
    {"smiles": "CC[C@@H]1[C@H](F)C(=O)N[C@@H]1COc1nccc2cc(C(N)=O)c(OC)cc12", "note": "[ZIMLOVISERTIB]", "values": [
      {"measurement": "% of inhibition", "setting": "[10]", "result": 17.6, "unit": "%"}
    ]},
    {"smiles": "CNC(=O)Nc1ccc(-c2nc(N3CC4CCC(C3)O4)c3cnn(C4CCC5(CC4)OCCO5)c3n2)cc1", "values": [
      {"measurement": "% of inhibition", "setting": "[11]", "result": 2, "unit": "%"},
      {"measurement": "% of control", "setting": "[12]", "result": 85, "unit": "%"},
      {"measurement": "% of inhibition", "setting": "[13]", "result": -1, "unit": "%"}
    ]},
    {"smiles": "O[C@H]1CC[C@H](Nc2ncc3nc(Nc4c(F)cc(F)cc4F)n([C@H]4CCOC4)c3n2)CC1", "values": [
      {"measurement": "% of control", "setting": "[14]", "result": 49, "unit": "%"}
    ]}
  ]
}
